Assay results taken from patent US9352010B2, “Treatment of HIV-1 infection and AIDS” (The J. David Gladstone Institutes, priority 2011, dated 2016).

Experiments:
CFSE-labeled CD4 T-cells = format: cell-based, human; settings: for indirect killing (loss) of resting CFSE-labeled CD4 T-cells: NL4-3-infected effector cells
Protocol: (A) Experimental strategy to assess indirect cell killing in HIV-1-infected human lymphoid cultures. Fresh human tonsil tissue from a single donor is processed into HLAC, and then separated into two fractions. One fraction is challenged with HIV-1 and cultured for 6 days, allowing viral spread. On day 5, the uninfected fraction is treated with AZT (5 μM) and labeled with CFSE (1 μM). On day 6, the infected and CFSE-labeled (i.e., uninfected) cultures are mixed and co-cultured in the presence of AZT. […] After 6 days of co-culturing, the number of viable CFSE-positive cells is determined by flow cytometry. (B) Flow cytometry analysis of the mixed HLACs. Indirect killing is determined by gating on live CFSE-positive cells in the mixed cultures. Effector cells are either infected or uninfected cells. […] CFSE-labeled cells mixed with uninfected or infected cells were cultured in the presence of 5 μM AZT alone or together with 250 nM AMD3100. Data represent live CFSE-positive cells 6 days after co-culture with infected or uninfected effector cells. […] The absolute numbers of viable CFSE-positive CD4 and CD8 T-cells and B cells were determined. Percentages are normalized to the number of viable CFSE-positive cells co-cultured with uninfected cells in the presence of AZT, as depicted by (*). Error bars represent standard deviations of three samples from the same donor. […] See also FIG. 3.
(§1) Human tonsil or splenic tissues from routine tonsillectomies were obtained from the National Disease Research Interchange and the Cooperative Human Tissue Network and processed as previously described (Jekle et al., 2003, J Virol 77:5846-5854). In brief, tonsils or spleen were minced, passed through a 40-μm cell strainer, and cultured in 96-well U-bottomed polystyrene plates (2×10^6 cells/well) in medium (200 μl/well) consisting of RPMI 1640 supplemented with 15% heat-inactivated fetal bovine serum, 100 μg/ml gentamicin, 200 μg/ml ampicillin, 1 mM sodium pyruvate, 1% nonessential amino acids (Mediatech), 2 mM L-glutamine, and 1% fungizone (Invitrogen). All HIV-1 infections were carried out with 20-50 ng of HIV-1 p24^gag. Cells were incubated with the virus for 12-16 h, washed extensively, and supplemented with fresh medium. After day 5, infections were monitored by measuring p24gag levels in the culture medium using a FLAQ assay (Hayden et al., 2003, AIDS 17:629-631). Infected and uninfected cultures were manipulated as described for individual experiments. In “indirect killing” assays, unless otherwise stated, drugs were used at the following concentrations: 5 μM AZT; 250 nM AMD3100; 10 μg/ml T20; 100 nM Efavirenz; 1 μM Nevirapine; 30 μM Raltegravir; 60 μM 118-D-24; 5 μM Amprenavir; 5 μM Saquinavir; 5 μM Indinavir. CFSE-labeled cells were activated with PHA (5 μg/ml) and IL-2 (20 ng/ml) 2 days before mixing with effector cells.
Uninfected cells (5×10^6/ml) were labeled with 1 μM CFSE (Molecular Probes C1157), treated with 5 μM AZT for 24 h, and co-cultured with effector cells. CFSE readily diffuses into cells, where intracellular esterases cleave the acetate groups, converting it to a fluorescent, membrane-impermeable dye.

[1] = system: SupT1 CD4 T leukemic cells; assay: Syncytia formation in NL4-3-infected SupT1 cells; format: cell-based; settings: 5 μM protease inhibitor, 2.5 days
Protocol: (A) The spinoculation procedure. (B) Flow cytometry of viable CD4 versus CD8-T-cells in HLAC three days after spinoculation in the presence of the indicated drugs. Data represent live-gated cells, based on the forward-scatter versus side-scatter profile of the complete culture. Of note, apoptotic cells were included in the analysis of caspases activity and cytokine expression (FIG. 10E, F). Drugs concentrations: AZT 5 μM; Efavirenz 100 nM; AMD3100 250 nM; T20 10 μg/ml. The data are representative results of six independent experiments with six different donors. […] (C) Highly permissive SupT1 CD4 T leukemic cells were infected with NL4-3 and cultivated for 3 days to allow substantial infection but not syncytia formation. […] After 2.5 days of additional culture, the extent of syncytia formation in each sample was evaluated by light microscopy. […] Results are representative of three independent experiments.

human monocytes = settings: LPS and ATP; cited from earlier work
[2] = system: CFSE-labeled spleen CD4 T-cells; assay: Indirect killing assay with CFSE-labeled human spleen cells; format: cell-based; settings: HIV-infected spleen HLAC effectors
Protocol: (B and C) Fresh human spleen from a single donor were processed into HLAC and assessed in indirect cell killing assay as described in FIG. 2A. Effector spleen HLAC were stimulated with PHA and IL-2 48 hours before mixing, but not during co-culturing with CFSE-labeled cells. Non-activated resting CFSE-labeled spleen cells were co-cultured with NL4-3-infected or uninfected effector cells in the presence or absence of the following drugs, AZT (5 μM), AMD3100 (250 nM), Efavirenz (100 nM), or Raltegravir (30 μM), as indicated. […] Percentages were normalized to the number of viable CFSE-positive spleen CD4 T-cells co-cultured with uninfected effectors in the presence of AZT, as depicted by (*). Error bars represent standard error of the mean for three experiments performed with three different spleen and tonsil donors.
as §1
Uninfected cells (5×10^6/ml) were labeled with 1 μM CFSE (Molecular Probes C1157), treated with 5 μM AZT for 24 h, and co-cultured with effector cells. CFSE readily diffuses into cells, where intracellular esterases cleave the acetate groups, converting it to a fluorescent, membrane-impermeable dye. […] To quantify indirect killing, mixed (CFSE-labeled+effector) cultures were washed in FACS buffer (PBS supplemented with 2 mM EDTA and 2% fetal bovine serum), stained with PE-conjugated anti-CD4, PerCP-conjugated anti-CD19, and APC-conjugated anti-CD8 (all from BD Pharmingen) and fixed in 1% paraformaldehyde. To determine the absolute numbers of the viable CFSE-labeled cells, a standard number of fluorescent beads (Flow-Count Fluorospheres, Beckman Coulter) was added to each cell-suspension sample before data acquisition. Data were collected on a FACS Calibur (BD Biosciences) and analyzed with Flowjo software (Treestar). The level of indirect killing was defined by sequential gating beginning with forward scatter versus side scatter to select live lymphocytes, subgating on the CFSE-positive population, and calculating the numbers of CD4 or CD8 T or B cells, divided by the number of fluorescent beads acquired.

[3] = system: HIV-1 reverse transcription products; assay: Taqman QPCR of HIV-1 reverse transcription products in infected CD4 T-cells; format: cell-based, human; settings: 16 hours after infection with NL4-3, versus untreated cells
Protocol: Fresh HLACs were washed once with PBS and resuspended with PBS containing 5 mM EDTA and 2% fetal bovine serum. CD4 T-cells were isolated from HLACs by positive selection on CD4 microbeads (Miltenyi) and cultured overnight in 96-well U-bottomed plates (1×10^6 cells/well) as described above, and AZT was added to the indicated cell samples. Next day, the rest of the drugs were added to the indicated cell samples at concentrations as described above. Cells were chilled on ice for 15 min and DNAse-treated (Ambion, 60 U/ml, 1 hour, 37° C.) NL4-3 or Δvif NL4-3 virions (200 ng/well) were added. After a 1 hour incubation with virions on ice, cells were spinoculated at 1200 g for 2 hours at 4° C., incubated at 37° C. for 2 hours, washed three times with cold PBS, and resuspended in fresh RPMI with the indicated drugs. Eight or 16 hours after spinoculation, cell pellets were frozen at −80° C. Total DNA was purified from each cell pellet with a DNAse kit (Qiagen). Primer and probe sequences used to detect reverse transcription products are provided herein. QPCR reactions were performed in triplicates in TaqMan universal PCR master mix using each primer at 3.75 μM and probe at 2.5 μM. After 15 minutes at 95° C., reactions underwent 50 cycles of 15 sec at 95° C. followed by 1 min at 60° C. in an ABI Prism 7900HT (Applied Biosystems).
Next the status of HIV-1 reverse transcription in tonsillar CD4 T-cells after infection was examined. […] Taqman-based quantitative real-time PCR (QPCR) was used to quantify the synthesis of reverse transcription products in isolated CD4 T-cells from HLAC 16 hours after infection with NL4-3. Specific QPCR primers and probes were designed (Table 1) to monitor sequential steps in reverse transcription including generation of strong-stop DNA, first template exchange (Nef), and DNA strand elongation (Env) (FIG. 10A)

ISRE-GFP H35 cells = assay: ISRE-GFP H35 reporter cells; format: cell-based, rat; settings: 1 μg transfected
Protocol: Hepatocyte-derived reporter ISRE-GFP H35 cells were maintained as previously described (King et al., 2007, Lab Chip 7:77-85; Patel et al., 2009, Proc Natl Acad Sci USA 106:12867-12872). For microscopic imaging, ISRE-GFP reporter H35 cells were cultured on 35 mm glass bottom culture dishes (MatTeck) and were treated with AZT (5 μM), Efavirenz (100 nM), or Raltegravir (30 μM) 12 hours before infection. Cells were then infected with 2 μg/ml of replication competent VSV-G pseudotyped NL4-3. After 48 hours incubation at 37° C., cells were fixed in 2% paraformaldehyde at 25° C. for 1 hour, washed with PBS and stained with 10 μg/ml Hoechst 33342 (Invitrogen) and 1 μg/ml 7-AAD (eBioscience) for 15 min at 25° C. Cells were washed 3 times with PBS and were analyzed with an Axio observer Z1 microscope (Zeiss) equipped with an EC Plan NEOFLUAR 10×/0.3 PHM27 objective, filter sets 38HE, 45, and 49, and an Axiocam MRM REV 3.

IL-1β = assay: Release of 17-kDa IL-1β from isolated tonsillar CD4 T-cells (ionophore stimulus); format: cell-based, human; settings: nigericin 10 μM
Protocol: For stimulating the processing and secretion of IL-1, CD4 T-cells were isolated from HLACs by positive selection and treated with 0.5 μM PMA ([…], Calbiochem Cat. #524400) for 6 hours at 37° C. PMA induces large intracellular stores of the 35 kDa pro-IL-1β. Cells were then washed with PBS and treated with 10 μM nigericin (Sigma, Cat. # N7143) overnight at 37° C. The potassium ionophore nigericin mediates an elecroneutral exchange of intracellular K^+ ions for extracellular protons, providing a second inflammatory stimulus, which results in the maturation and release of the bioactive 17 kDa IL-1β(Perregaux et al., 1992, J Immunol 149:1294-1303; Perregaux and Gabel, 1994, J Biol Chem 269:15195-15203).
Isolated tonsillar CD4 T-cells were treated overnight with nigericin (10 μM) to provide a second inflammatory stimulus, resulting in maturation and release of bioactive 17-kDa IL-1β. Supernatants from the cell cultures were subjected to SDS-PAGE and immunoblotting. 17-kDa IL-1β was released after treatment with nigericin, but not with calcium ionophore A23187 or the nonspecific cation ionophore monensin. Thus, while these cells are primed, they must receive the appropriate proinflammatory signal for pro-IL-1β processing and release. […]

CC(C)(C)NC(=O)[C@@H]1C[C@@H]2CCCC[C@@H]2CN1C[C@@H](O)[C@H](Cc1ccccc1)NC(=O)[C@H](CC(N)=O)NC(=O)c1ccc2ccccc2n1 [Saquinavir]
indirect killing (loss) of resting CFSE-labeled CD4 T-cells (CFSE-labeled CD4 T-cells): inhibit indirect killing
syncytia formation / cell-cell fusion [1]: do not block syncytia formation

CC(C)c1cc(Cl)cc(C(C)C)c1NC(=O)NS(=O)(=O)c1cccc(C(C)(C)O)c1 [CP-424,174]
post-translational processing and secretion of IL-1β (human monocytes): inhibited the post-translational processing and secretion of IL-1β

Cc1ccc(-c2ccc3c(c2)C=C(C(=O)Nc2ccc(C[N+](C)(C)C4CCOCC4)cc2)CCC3)cc1.[Cl-] [TAK779]
indirect killing of CFSE-labeled CD4 T-cells (CFSE-labeled CD4 T-cells; WEAU 16-8 (R5/X4)-infected effector cells): had no effect

CC(C)(C)NC(=O)[C@@H]1CN(Cc2cccnc2)CCN1C[C@@H](O)C[C@@H](Cc1ccccc1)C(=O)N[C@H]1c2ccccc2C[C@H]1O [Indinavir]
indirect killing (loss) of resting CFSE-labeled CD4 T-cells (CFSE-labeled CD4 T-cells): inhibit indirect killing
syncytia formation / cell-cell fusion [1]: do not block syncytia formation

CC(NC(=O)[C@H](Cc1ccccc1)NC(=O)OCc1ccccc1)C(=O)CF (some centres unmarked) [Z-FA-FMK]
death of abortively infected CD4 T-cells with caspase inhibitors (CFSE-labeled CD4 T-cells; 20 μM caspase inhibitor, AZT 5 μM): persisted

CC(C)c1cc(Cl)cc(C(C)C)c1NC(=O)NS(=O)(=O)c1cccc(C(C)O)c1 (centres unmarked) [CP-412,245]
post-translational processing and secretion of IL-1β (human monocytes): inhibited the post-translational processing and secretion of IL-1β

Cc1nnc(C(=O)NC(C)(C)c2nc(C(=O)NCc3ccc(F)cc3)c(O)c(=O)n2C)o1 [raltegravir]
indirect killing (loss) of resting CFSE-labeled CD4 T-cells (CFSE-labeled CD4 T-cells): did not prevent abortive infection killing
loss of CFSE-labeled spleen CD4 T-cells [2]: did not prevent CD4 T-cell killing
reverse transcription products corresponding to strong-stop DNA [3]: similar

poly(I:C)
ISRE-GFP reporter activation by transfected nucleic acid (ISRE-GFP H35 cells): elicited a comparable ISRE-GFP response

Cc1ccnc2c1NC(=O)c1cccnc1N2C1CC1 [nevirapine]
indirect killing (loss) of resting CFSE-labeled CD4 T-cells (CFSE-labeled CD4 T-cells): blocked indirect killing of resting CD4 T-cells as efficiently as AMD3100

COC(=O)C[C@H](NC(=O)[C@H](C)NC(=O)[C@@H](NC(=O)[C@H](Cc1ccc(O)cc1)NC(=O)OCc1ccccc1)C(C)C)C(=O)CF [Z-YVAD]
nigericin-induced IL-1β release after pre-treatment with caspase inhibitor (IL-1β): blocked
